Measurements published in US20210395256A1, “TYROSINE KINASE INHIBITORS, COMPOSITIONS AND METHODS THERE OF” (Betta Pharmaceuticals Co., Ltd., priority 2018, published 2021).
pIC50: −log10 of the molar value.

Each compound was assayed against TrkA kinase (Homo sapiens, UniProt P04629) (assay: TrkA kinase assay (mobility shift assay)). Settings: class symbols; read-out: Trk A Kinase IC50.
Assay type: biochemical
Method: Example 201 TrkA Kinase Assay
Mobility shift assay was used to determine the inhibitory activity of compounds against TrkA kinase. Assay procedures are as follows:
1× Kinase base buffer (50 mM HEPES, pH 7.5; 0.0015% Brij-35)
Stop buffer (100 mM HEPES, pH 7.5; 0.015% Brij-35; 0.2% Coating Reagent #3; 50 mM EDTA)
1) Dilute the compound to 50× of the final desired highest inhibitor concentration in reaction by 100% DMSO. Transfer 100 μl of this compound dilution to a well in a 96-well plate.
2) For all compounds, transfer the compound in tubes to one well on 96-well storage plate and serially dilute the compound by transferring 30 μl to 60 μl of 100% DMSO in the next well and so forth for a total of 10 concentrations.
3) Add 100 μl of 100% DMSO to two empty wells for no compound control and no enzyme control in the same 96-well plate. Mark the plate as source plate.
4) Prepare intermediate plate
Transfer 10 μl of compound from source plate to a new 96-well plate as the intermediate plate
Add 90 µl of 1× kinase buffer to each well of the intermediate plate.
Mix the compounds in intermediate plate for 10 min on shaker.
1) Transfer 5 μl of each well from the 96-well intermediate plate to a 384-well plate in duplicates. For example, A1 of the 96-well plate is transferred to A1 and A2 of the 384-well plate. A2 of the 96-well plate is transferred to A3 and A4 of the 384-well plate, and so on.
1) Prepare 2.5× enzyme solution
Add kinase in 1× kinase base buffer.
2) Prepare 2.5× peptide solution Add FAM-labeled peptide and ATP in the 1× kinase base buffer.
3) Assay plate already contains 5 μl of compound in 10% DMSO.
4) Transfer 2.5× enzyme solution to the assay plate
Add 10 μl of 2.5× enzyme solution to each well of the 384-well assay plate.
5) Incubate at room temperature for 10 min.
6) Transfer 2.5× peptide solution to the assay plate
Add 10 μl of 2.5× peptide solution to each well of the 384-well assay plate.
Kinase reaction conditions are shown as Table 11:
7) Kinase reaction and stop
Incubate at 28° C. for specified period of time.
Add 25 μl of stop buffer to stop reaction.
1) Copy conversion data from Caliper program.
2) Convert conversion values to inhibition values.
Percent inhibition=(max-conversion)/(max-min)*100.
“max” stands for DMSO control; “min” stands for low control.
3) Fit the data in XLFit excel add-in version 5.4.0.8 to obtain IC50 values.
Equation used is: Y=Bottom+(Top-Bottom)/(1+(IC50/X)^HillSlope)

Chain of TrkA kinase (P04629 33-796): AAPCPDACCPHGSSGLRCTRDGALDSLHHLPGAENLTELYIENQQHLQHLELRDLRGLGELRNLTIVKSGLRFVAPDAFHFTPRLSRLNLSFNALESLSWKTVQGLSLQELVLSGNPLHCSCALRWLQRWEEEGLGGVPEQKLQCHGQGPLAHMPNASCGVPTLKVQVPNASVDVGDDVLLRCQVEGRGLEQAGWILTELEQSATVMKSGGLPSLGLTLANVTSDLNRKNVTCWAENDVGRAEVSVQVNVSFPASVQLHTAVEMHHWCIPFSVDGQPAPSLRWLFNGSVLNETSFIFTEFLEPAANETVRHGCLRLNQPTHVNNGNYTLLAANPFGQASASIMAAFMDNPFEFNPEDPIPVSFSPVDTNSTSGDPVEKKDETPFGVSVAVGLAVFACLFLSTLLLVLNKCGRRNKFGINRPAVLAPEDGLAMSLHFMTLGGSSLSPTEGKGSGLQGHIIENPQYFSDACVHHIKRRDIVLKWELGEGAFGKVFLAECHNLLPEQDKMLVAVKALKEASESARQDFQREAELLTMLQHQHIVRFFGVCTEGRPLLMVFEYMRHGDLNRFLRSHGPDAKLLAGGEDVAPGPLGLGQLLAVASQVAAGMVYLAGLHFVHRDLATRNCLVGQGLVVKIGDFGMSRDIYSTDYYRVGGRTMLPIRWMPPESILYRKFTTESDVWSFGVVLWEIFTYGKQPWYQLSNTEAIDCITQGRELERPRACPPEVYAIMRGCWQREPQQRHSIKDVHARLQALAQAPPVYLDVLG

**Q.** Fc1ccc(F)c([C@H]2CCCN2c2ccn3ncc(-c4nnc(-c5ccc(N6CCOCC6)cc5)[nH]4)c3n2)c1 [Compound 1, (R)-4-(4-(5-(5-(2-(2,5-difluorophenyl)pyrrolidin-1-yl)pyrazolo[1,5-a]pyrimidin-3-yl)-4H-1,2,4-triazol-3-yl)phenyl)morpholine] was tested. Which pIC50 did it give?
**A.** ≥ 8.00

**Q.** With Fc1ccc(F)c([C@H]2CCCN2c2ccn3ncc(-c4nnc(C5CCOC5)[nH]4)c3n2)c1 (stereo partly drawn) [Compound 3, 5-((R)-2-(2,5-difluorophenyl)pyrrolidin-1-yl)-3-(5-(tetrahydrofuran-3-yl)-4H-1,2,4-triazol-3-yl)pyrazolo[1,5-a]pyrimidine] as the compound, how does the pIC50 read?
**A.** 7.30 to 8.00

**Q.** Fc1ccc(F)c([C@H]2CCCN2c2ccn3ncc(-c4nnc(-c5ccnc(N6CCOCC6)c5)[nH]4)c3n2)c1 [Compound 6, (R)-4-(4-(5-(5-(2-(2,5-difluorophenyl)pyrrolidin-1-yl)pyrazolo[1,5-a]pyrimidin-3-yl)-4H-1,2,4-triazol-3-yl)pyridin-2-yl)morpholine] was tested. Which pIC50 did it give?
**A.** ≥ 8.00

**Q.** How did the pIC50 turn out when Fc1ccc(F)c([C@H]2CCCN2c2ccn3ncc(-c4nnc(C5CCN5)[nH]4)c3n2)c1 (stereo partly drawn) [Compound 15, 3-(5-(azetidin-2-yl)-4H-1,2,4-triazol-3-yl)-5-((R)-2-(2,5-difluorophenyl)pyrrolidin-1-yl)pyrazolo[1,5-a]pyrimidine] was run?
**A.** < 7.30

**Q.** With OC1CC[C@H](c2nnc(-c3cnn4ccc(N5CCC[C@@H]5c5cc(F)ccc5F)nc34)[nH]2)C1 (stereo partly drawn) [Compound 19, (3S)-3-(5-(5-((R)-2-(2,5-difluorophenyl)pyrrolidin-1-yl)pyrazolo[1,5-a]pyrimidin-3-yl)-4H-1,2,4-triazol-3-yl)cyclopentan-1-ol] as the compound, how does the pIC50 read?
**A.** ≥ 8.00

**Q.** Cn1c(-c2ccnc(N3CCC(O)CC3)c2)nnc1-c1cnn2ccc(N3CCC[C@@H]3c3cc(F)ccc3F)nc12 [Compound 21, (R)-1-(4-(5-(5-(2-(2,5-difluorophenyl)pyrrolidin-1-yl)pyrazolo[1,5-a]pyrimidin-3-yl)-4-methyl-4H-1,2,4-triazol-3-yl)pyridin-2-yl)piperidin-4-ol] was tested. Which pIC50 did it give?
**A.** < 7.30

**Q.** How did the pIC50 turn out when C[C@](O)(c1nnc(-c2cnn3ccc(N4CCC[C@@H]4c4cc(F)ccc4F)nc23)[nH]1)C(F)(F)F [Compound 25, (S)-2-(5-(5-((R)-2-(2,5-difluorophenyl)pyrrolidin-1-yl)pyrazolo[1,5-a]pyrimidin-3-yl)-4H-1,2,4-triazol-3-yl)-1,1,1-trifluoropropan-2-ol] was run?
**A.** 7.30 to 8.00

**Q.** With OC(c1nnc(-c2cnn3ccc(N4CCC[C@@H]4c4cc(F)ccc4F)nc23)[nH]1)(C(F)(F)F)C(F)(F)F [Compound 27, (R)-2-(5-(5-(2-(2,5-difluorophenyl)pyrrolidin-1-yl)pyrazolo[1,5-a]pyrimidin-3-yl)-4H-1,2,4-triazol-3-yl)-1,1,1,3,3,3-hexafluoropropan-2-ol] as the compound, how does the pIC50 read?
**A.** < 7.30

**Q.** How did the pIC50 turn out when CCC(O)(c1nnc(-c2cnn3ccc(N4CCC[C@@H]4c4cc(F)ccc4F)nc23)[nH]1)C(F)(F)F (stereo partly drawn) [Compound 28, 2-(5-(5-((R)-2-(2,5-difluorophenyl)pyrrolidin-1-yl)pyrazolo[1,5-a]pyrimidin-3-yl)-4H-1,2,4-triazol-3-yl)-1,1,1-trifluorobutan-2-ol] was run?
**A.** < 7.30

**Q.** Fc1ccc(F)c([C@H]2CCCN2c2ccn3ncc(-c4nnc(C5CCOCC5)[nH]4)c3n2)c1 [Compound 32, (R)-5-(2-(2,5-difluorophenyl)pyrrolidin-1-yl)-3-(5-(tetrahydro-2H-pyran-4-yl)-4H-1,2,4-triazol-3-yl)pyrazolo[1,5-a]pyrimidine] was tested. Which pIC50 did it give?
**A.** 7.30 to 8.00

**Q.** OC1CCNC(c2nnc(-c3cnn4ccc(N5CCC[C@@H]5c5cc(F)ccc5F)nc34)[nH]2)C1 (stereo partly drawn) [Compound 35, 2-(5-(5-((R)-2-(2,5-difluorophenyl)pyrrolidin-1-yl)pyrazolo[1,5-a]pyrimidin-3-yl)-4H-1,2,4-triazol-3-yl)piperidin-4-ol] was tested. Which pIC50 did it give?
**A.** 7.30 to 8.00

Same assay, conditions: numeric values; read-out: Trk A Kinase IC50

**Q.** How did the pIC50 turn out when OC1CCN(c2cc(-c3nnc(-c4cnn5ccc(N6CCC[C@@H]6c6cc(F)ccc6F)nc45)[nH]3)ccn2)CC1 [Compound 2, (R)-1-(4-(5-(5-(2-(2,5-difluorophenyl)pyrrolidin-1-yl)pyrazolo[1,5-a]pyrimidin-3-yl)-4H-1,2,4-triazol-3-yl)pyridin-2-yl)piperidin-4-ol] was run?
**A.** 9.37

**Q.** O[C@H]1CC[C@@H](c2nnc(-c3cnn4ccc(N5CCC[C@@H]5c5cc(F)ccc5F)nc34)[nH]2)CC1 [Compound 5, (1S,4s)-4-(5-(5-((R)-2-(2,5-difluorophenyl)pyrrolidin-1-yl)pyrazolo[1,5-a]pyrimidin-3-yl)-4H-1,2,4-triazol-3-yl)cyclohexan-1-ol] was tested. Which pIC50 did it give?
**A.** 8.74

**Q.** How did the pIC50 turn out when CC(C)(C)OC(=O)N1CCC1c1nnc(-c2cnn3ccc(N4CCC[C@@H]4c4cc(F)ccc4F)nc23)[nH]1 (stereo partly drawn) [Compound 20, tert-butyl 2-(5-(5-((R)-2-(2,5-difluorophenyl)pyrrolidin-1-yl)pyrazolo[1,5-a]pyrimidin-3-yl)-4H-1,2,4-triazol-3-yl)azetidine-1-carboxylate] was run?
**A.** 7.33

**Q.** With CC(O)(Cc1nnc(-c2cnn3ccc(N4CCC[C@@H]4c4cc(F)ccc4F)nc23)[nH]1)C(F)(F)F (stereo partly drawn) [Compound 29, 3-(5-(5-((R)-2-(2,5-difluorophenyl)pyrrolidin-1-yl)pyrazolo[1,5-a]pyrimidin-3-yl)-4H-1,2,4-triazol-3-yl)-1,1,1-trifluoro-2-methylpropan-2-ol] as the compound, how does the pIC50 read?
**A.** 8.85

**Q.** With CC(C)(CO)c1nnc(-c2cnn3ccc(N4CCC[C@@H]4c4cc(F)ccc4F)nc23)[nH]1 [Compound 33, (R)-2-(5-(5-(2-(2,5-difluorophenyl)pyrrolidin-1-yl)pyrazolo[1,5-a]pyrimidin-3-yl)-4H-1,2,4-triazol-3-yl)-2-methylpropan-1-ol] as the compound, how does the pIC50 read?
**A.** 8.62

**Q.** How did the pIC50 turn out when OC12CC3CC(C1)CC(c1nnc(-c4cnn5ccc(N6CCC[C@@H]6c6cc(F)ccc6F)nc45)[nH]1)(C3)C2 [Compound 37, (1R,3r)-3-(5-(5-((R)-2-(2,5-difluorophenyl)pyrrolidin-1-yl)pyrazolo[1,5-a]pyrimidin-3-yl)-4H-1,2,4-triazol-3-yl)adamantan-1-ol] was run?
**A.** 8.80

**Q.** CN1CCC(c2nnc(-c3cnn4ccc(N5CCC[C@@H]5c5cc(F)ccc5F)nc34)[nH]2)CC1 [Compound 38, (R)-5-(2-(2,5-difluorophenyl)pyrrolidin-1-yl)-3-(5-(1-methylpiperidin-4-yl)-4H-1,2,4-triazol-3-yl)pyrazolo[1,5-a]pyrimidine] was tested. Which pIC50 did it give?
**A.** 7.93

**Q.** Fc1ccc(F)c([C@H]2CCCN2c2ccn3ncc(-c4nnc(C5CCC(F)(F)CC5)[nH]4)c3n2)c1 [Compound 41, (R)-3-(5-(4,4-difluorocyclohexyl)-4H-1,2,4-triazol-3-yl)-5-(2-(2,5-difluorophenyl)pyrrolidin-1-yl)pyrazolo[1,5-a]pyrimidine] was tested. Which pIC50 did it give?
**A.** 8.41

**Q.** With O[C@H](c1ccccc1)c1nnc(-c2cnn3ccc(N4CCC[C@@H]4c4cc(F)ccc4F)nc23)[nH]1 [Compound 42, (R)-(5-(5-((R)-2-(2,5-difluorophenyl)pyrrolidin-1-yl)pyrazolo[1,5-a]pyrimidin-3-yl)-4H-1,2,4-triazol-3-yl)(phenyl)methanol] as the compound, how does the pIC50 read?
**A.** 8.41

**Q.** OCC12CC(c3nnc(-c4cnn5ccc(N6CCC[C@@H]6c6cc(F)ccc6F)nc45)[nH]3)(C1)C2 [Compound 43, (R)-(3-(5-(5-(2-(2,5-difluorophenyl)pyrrolidin-1-yl)pyrazolo[1,5-a]pyrimidin-3-yl)-4H-1,2,4-triazol-3-yl)bicyclo[1.1.1]pentan-1-yl)methanol] was tested. Which pIC50 did it give?
**A.** 8.60
